Assay results as given in ChEMBL document CHEMBL4507282, “Data for DCP probe BI-1950” (2021).

Assays:
[1] = target: Serine/threonine-protein kinase PLK2 (Homo sapiens) (UniProt Q9NYY3); conditions: Compound concentration 1000.0 nM
[2] = target: Cyclin-dependent kinase 14 (Homo sapiens) (UniProt O94921); conditions: Compound concentration 1000.0 nM
[3] = test system: eIF-2-alpha kinase GCN2 (Homo sapiens), Q9P2K8 [S808G]; conditions: Compound concentration 1000.0 nM
[4] = target: Cyclin-dependent kinase 2 homolog (Plasmodium falciparum (isolate 3D7)) (UniProt P61075); conditions: Compound concentration 1000.0 nM
[5] = target: Dual specificity testis-specific protein kinase 1 (Homo sapiens) (UniProt Q15569); conditions: Compound concentration 1000.0 nM
[6] = target: cAMP-dependent protein kinase catalytic subunit alpha (Homo sapiens) (UniProt P17612); conditions: Compound concentration 1000.0 nM
[7] = target: Serine/threonine-protein kinase Nek1 (Homo sapiens) (UniProt Q96PY6); conditions: Compound concentration 1000.0 nM
[8] = target: Serine/threonine-protein kinase PAK 5 (Homo sapiens) (UniProt Q9P286); conditions: Compound concentration 1000.0 nM
[9] = target: AP2-associated protein kinase 1 (Homo sapiens) (UniProt Q2M2I8); conditions: Compound concentration 1000.0 nM
[10] = target: D(1B) dopamine receptor (Homo sapiens) (UniProt P21918); conditions: Compound concentration 10.0 uM
[11] = target: Tyrosine-protein kinase JAK2 (Homo sapiens) (UniProt O60674); conditions: Compound concentration 1000.0 nM
[12] = target: Myotonin-protein kinase (Homo sapiens) (UniProt Q09013); conditions: Compound concentration 1000.0 nM
[13] = target: Mitogen-activated protein kinase 12 (Homo sapiens) (UniProt P53778); conditions: Compound concentration 1000.0 nM
[14] = target: Ribosomal protein S6 kinase alpha-5 (Homo sapiens) (UniProt O75582); conditions: Compound concentration 1000.0 nM
Ribosomal protein S6 kinase alpha-5 (Homo sapiens), sequence (O75582 whole entry, looked up): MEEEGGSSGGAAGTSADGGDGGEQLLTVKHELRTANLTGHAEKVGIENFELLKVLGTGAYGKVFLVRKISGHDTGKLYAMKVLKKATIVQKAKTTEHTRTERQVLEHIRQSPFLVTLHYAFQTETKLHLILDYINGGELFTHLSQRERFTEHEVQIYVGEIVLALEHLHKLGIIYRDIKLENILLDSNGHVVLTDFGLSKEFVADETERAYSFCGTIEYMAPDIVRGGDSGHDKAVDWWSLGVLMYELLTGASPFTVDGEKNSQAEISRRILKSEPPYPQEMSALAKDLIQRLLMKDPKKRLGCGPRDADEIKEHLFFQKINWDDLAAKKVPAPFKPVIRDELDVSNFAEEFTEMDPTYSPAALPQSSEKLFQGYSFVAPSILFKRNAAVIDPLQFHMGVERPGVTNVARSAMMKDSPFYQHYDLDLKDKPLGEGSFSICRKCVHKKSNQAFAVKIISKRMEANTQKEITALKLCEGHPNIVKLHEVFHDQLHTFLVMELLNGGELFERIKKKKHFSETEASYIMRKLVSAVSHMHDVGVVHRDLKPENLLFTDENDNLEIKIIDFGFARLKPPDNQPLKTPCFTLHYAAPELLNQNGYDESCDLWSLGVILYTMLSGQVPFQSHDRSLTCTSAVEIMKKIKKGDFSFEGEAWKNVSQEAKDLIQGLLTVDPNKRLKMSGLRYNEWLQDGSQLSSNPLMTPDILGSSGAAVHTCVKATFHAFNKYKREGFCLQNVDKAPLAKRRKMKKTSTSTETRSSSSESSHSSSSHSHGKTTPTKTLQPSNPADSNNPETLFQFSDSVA

[15] = target: Dual specificity mitogen-activated protein kinase kinase 7 (Homo sapiens) (UniProt O14733); conditions: Compound concentration 1000.0 nM
[16] = target: Casein kinase I isoform gamma-3 (Homo sapiens) (UniProt Q9Y6M4); conditions: Compound concentration 1000.0 nM
[17] = target: G protein-coupled receptor kinase 4 (Homo sapiens) (UniProt P32298); conditions: Compound concentration 1000.0 nM
G protein-coupled receptor kinase 4 (Homo sapiens), sequence (P32298 whole entry, looked up): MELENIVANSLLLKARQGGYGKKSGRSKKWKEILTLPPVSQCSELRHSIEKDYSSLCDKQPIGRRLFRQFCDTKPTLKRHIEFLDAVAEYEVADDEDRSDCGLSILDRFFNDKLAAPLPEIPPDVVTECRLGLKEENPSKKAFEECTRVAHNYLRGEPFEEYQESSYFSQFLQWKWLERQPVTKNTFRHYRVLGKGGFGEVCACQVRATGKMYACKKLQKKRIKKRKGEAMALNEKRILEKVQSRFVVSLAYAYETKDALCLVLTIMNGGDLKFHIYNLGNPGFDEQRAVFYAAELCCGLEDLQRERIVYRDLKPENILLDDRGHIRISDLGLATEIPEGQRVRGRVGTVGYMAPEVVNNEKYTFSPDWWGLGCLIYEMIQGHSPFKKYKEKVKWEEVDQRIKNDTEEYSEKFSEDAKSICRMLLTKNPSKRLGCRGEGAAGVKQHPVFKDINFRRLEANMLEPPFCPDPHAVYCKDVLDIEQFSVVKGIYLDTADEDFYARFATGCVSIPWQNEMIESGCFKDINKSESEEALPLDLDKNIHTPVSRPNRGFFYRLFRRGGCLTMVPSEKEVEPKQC

[18] = test system: Tyrosine-protein kinase ABL1 (Homo sapiens), P00519 [T315I]; conditions: Compound concentration 1000.0 nM
[19] = target: Mitogen-activated protein kinase kinase kinase 12 (Homo sapiens) (UniProt Q12852); conditions: Compound concentration 1000.0 nM
[20] = target: Tyrosine-protein kinase receptor Tie-1 (Homo sapiens) (UniProt P35590); conditions: Compound concentration 1000.0 nM
Tyrosine-protein kinase receptor Tie-1 (Homo sapiens), sequence (P35590 whole entry): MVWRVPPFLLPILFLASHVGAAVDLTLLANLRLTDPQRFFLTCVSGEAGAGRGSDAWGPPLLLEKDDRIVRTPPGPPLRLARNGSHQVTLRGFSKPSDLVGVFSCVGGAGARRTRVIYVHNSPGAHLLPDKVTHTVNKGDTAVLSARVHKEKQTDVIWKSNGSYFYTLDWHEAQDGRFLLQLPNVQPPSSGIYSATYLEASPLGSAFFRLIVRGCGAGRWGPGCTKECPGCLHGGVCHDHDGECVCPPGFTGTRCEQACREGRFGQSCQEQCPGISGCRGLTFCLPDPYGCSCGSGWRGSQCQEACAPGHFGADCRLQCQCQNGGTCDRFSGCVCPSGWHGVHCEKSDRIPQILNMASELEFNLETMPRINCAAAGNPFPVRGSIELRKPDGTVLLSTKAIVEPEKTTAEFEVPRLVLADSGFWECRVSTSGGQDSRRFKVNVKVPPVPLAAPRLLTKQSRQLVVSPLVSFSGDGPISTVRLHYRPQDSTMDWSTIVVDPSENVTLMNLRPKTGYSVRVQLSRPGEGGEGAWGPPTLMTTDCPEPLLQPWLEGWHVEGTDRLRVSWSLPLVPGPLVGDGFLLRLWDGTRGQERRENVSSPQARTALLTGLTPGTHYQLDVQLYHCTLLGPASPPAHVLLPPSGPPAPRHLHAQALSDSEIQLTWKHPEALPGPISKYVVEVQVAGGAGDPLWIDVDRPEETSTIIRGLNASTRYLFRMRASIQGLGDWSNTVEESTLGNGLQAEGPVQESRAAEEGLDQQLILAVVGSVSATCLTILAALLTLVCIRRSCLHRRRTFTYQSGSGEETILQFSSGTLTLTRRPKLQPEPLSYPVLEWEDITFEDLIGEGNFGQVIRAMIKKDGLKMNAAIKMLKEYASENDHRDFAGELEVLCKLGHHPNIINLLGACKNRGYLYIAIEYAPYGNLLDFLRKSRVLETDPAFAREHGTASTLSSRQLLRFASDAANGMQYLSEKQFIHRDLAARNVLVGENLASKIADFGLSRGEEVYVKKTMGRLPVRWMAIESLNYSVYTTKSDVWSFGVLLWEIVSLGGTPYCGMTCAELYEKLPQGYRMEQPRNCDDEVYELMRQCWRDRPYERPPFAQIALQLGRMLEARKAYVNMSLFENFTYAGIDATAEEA

[21] = target: Serine/threonine-protein kinase 17B (Homo sapiens) (UniProt O94768); conditions: Compound concentration 1000.0 nM
Serine/threonine-protein kinase 17B (Homo sapiens), sequence (O94768 whole entry): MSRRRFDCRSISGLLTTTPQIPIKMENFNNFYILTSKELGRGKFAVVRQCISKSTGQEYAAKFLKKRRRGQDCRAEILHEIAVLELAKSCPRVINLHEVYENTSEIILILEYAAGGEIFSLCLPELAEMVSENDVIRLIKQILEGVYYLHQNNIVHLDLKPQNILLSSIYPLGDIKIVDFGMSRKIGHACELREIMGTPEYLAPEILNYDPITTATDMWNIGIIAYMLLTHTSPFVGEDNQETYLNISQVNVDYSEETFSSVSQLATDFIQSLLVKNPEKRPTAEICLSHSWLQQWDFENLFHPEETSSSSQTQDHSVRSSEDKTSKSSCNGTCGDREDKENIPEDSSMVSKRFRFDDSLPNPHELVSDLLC

[22] = test system: Tyrosine-protein kinase ABL1 (Homo sapiens), P00519 [Q252H]; conditions: Compound concentration 1000.0 nM
[23] = target: 5-hydroxytryptamine receptor 1B (Homo sapiens) (UniProt P28222); conditions: Compound concentration 10.0 uM
[24] = target: Sodium-dependent serotonin transporter (Homo sapiens) (UniProt P31645); conditions: Compound concentration 10.0 uM
[25] = test system: Tyrosine-protein kinase ABL1 (Homo sapiens), P00519 [T315I]; conditions: Compound concentration 1000.0 nM; remark: listed apart in the source
[26] = target: Proto-oncogene tyrosine-protein kinase receptor Ret (Homo sapiens) (UniProt P07949); conditions: Compound concentration 1000.0 nM
[27] = test system: Phosphatidylinositol 4,5-bisphosphate 3-kinase catalytic subunit alpha isoform (Homo sapiens), P42336 [H1047Y]; conditions: Compound concentration 1000.0 nM
Phosphatidylinositol 4,5-bisphosphate 3-kinase catalytic subunit alpha isoform (Homo sapiens), P42336 [H1047Y], sequence (P42336 whole entry H1047Y, canonical isoform): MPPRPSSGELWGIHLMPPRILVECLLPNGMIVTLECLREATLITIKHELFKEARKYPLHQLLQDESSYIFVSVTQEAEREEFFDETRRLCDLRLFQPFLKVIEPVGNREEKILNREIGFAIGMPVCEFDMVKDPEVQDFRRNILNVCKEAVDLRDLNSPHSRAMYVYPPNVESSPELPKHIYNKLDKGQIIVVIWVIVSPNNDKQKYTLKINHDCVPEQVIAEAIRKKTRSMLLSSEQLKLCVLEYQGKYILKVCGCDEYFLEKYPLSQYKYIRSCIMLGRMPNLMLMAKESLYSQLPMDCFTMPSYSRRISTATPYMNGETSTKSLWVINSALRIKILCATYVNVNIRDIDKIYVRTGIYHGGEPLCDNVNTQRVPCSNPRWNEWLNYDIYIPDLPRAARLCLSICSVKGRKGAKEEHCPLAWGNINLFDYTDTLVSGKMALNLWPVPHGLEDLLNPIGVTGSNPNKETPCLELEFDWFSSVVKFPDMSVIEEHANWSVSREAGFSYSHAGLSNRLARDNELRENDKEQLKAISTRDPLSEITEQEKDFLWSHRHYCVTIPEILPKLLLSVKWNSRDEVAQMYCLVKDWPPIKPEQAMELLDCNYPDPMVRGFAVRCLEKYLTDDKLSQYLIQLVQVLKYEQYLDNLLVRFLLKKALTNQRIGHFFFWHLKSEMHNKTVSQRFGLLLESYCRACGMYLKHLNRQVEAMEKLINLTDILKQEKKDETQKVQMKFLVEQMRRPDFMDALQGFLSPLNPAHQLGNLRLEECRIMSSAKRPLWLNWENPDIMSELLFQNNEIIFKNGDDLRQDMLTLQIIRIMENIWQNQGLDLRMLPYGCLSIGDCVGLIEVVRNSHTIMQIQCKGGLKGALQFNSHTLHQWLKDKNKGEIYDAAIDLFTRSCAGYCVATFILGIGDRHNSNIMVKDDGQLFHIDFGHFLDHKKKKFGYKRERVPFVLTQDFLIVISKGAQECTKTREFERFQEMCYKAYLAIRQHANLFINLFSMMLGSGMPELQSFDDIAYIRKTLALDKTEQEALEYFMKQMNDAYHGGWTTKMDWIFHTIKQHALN

[28] = target: Serine/threonine-protein kinase DCLK1 (Homo sapiens) (UniProt O15075); conditions: Compound concentration 1000.0 nM
[29] = target: Ephrin type-B receptor 4 (Homo sapiens) (UniProt P54760); conditions: Compound concentration 1000.0 nM
[30] = target: Serine/threonine-protein kinase MRCK alpha (Homo sapiens) (UniProt Q5VT25); conditions: Compound concentration 1000.0 nM
[31] = test system: Epidermal growth factor receptor (Homo sapiens), P00533 [L858R]; conditions: Compound concentration 1000.0 nM
[32] = target: Serine/threonine-protein kinase BRSK2 (Homo sapiens) (UniProt Q8IWQ3); conditions: Compound concentration 1000.0 nM
[33] = target: Myosin light chain kinase 2, skeletal/cardiac muscle (Homo sapiens) (UniProt Q9H1R3); conditions: Compound concentration 1000.0 nM
[34] = target: Serine/threonine-protein kinase MARK2 (Homo sapiens) (UniProt Q7KZI7); conditions: Compound concentration 1000.0 nM
[35] = target: Fibroblast growth factor receptor 1 (Homo sapiens) (UniProt P11362); conditions: Compound concentration 1000.0 nM
[36] = target: Ribosomal protein S6 kinase alpha-1 (Homo sapiens) (UniProt Q15418); conditions: Compound concentration 1000.0 nM
[37] = target: Death-associated protein kinase 1 (Homo sapiens) (UniProt P53355); conditions: Compound concentration 1000.0 nM
[38] = test system: Tyrosine-protein kinase ABL1 (Homo sapiens), P00519 [F317L]; conditions: Compound concentration 1000.0 nM
[39] = target: Calcium/calmodulin-dependent protein kinase type II subunit gamma (Homo sapiens) (UniProt Q13555); conditions: Compound concentration 1000.0 nM
[40] = target: Phosphatidylinositol 5-phosphate 4-kinase type-2 beta (Homo sapiens) (UniProt P78356); conditions: Compound concentration 1000.0 nM
[41] = test system: Receptor-type tyrosine-protein kinase FLT3 (Homo sapiens), P36888 [D835Y]; conditions: Compound concentration 1000.0 nM
[42] = test system: Tyrosine-protein kinase ABL1 (Homo sapiens), P00519 [Y253F]; conditions: Compound concentration 1000.0 nM
[43] = target: Activin receptor type-1-like (Homo sapiens) (UniProt P37023); conditions: Compound concentration 1000.0 nM
[44] = target: Serine/threonine-protein kinase 32A (Homo sapiens) (UniProt Q8WU08); conditions: Compound concentration 1000.0 nM
Serine/threonine-protein kinase 32A (Homo sapiens), sequence (Q8WU08 whole entry): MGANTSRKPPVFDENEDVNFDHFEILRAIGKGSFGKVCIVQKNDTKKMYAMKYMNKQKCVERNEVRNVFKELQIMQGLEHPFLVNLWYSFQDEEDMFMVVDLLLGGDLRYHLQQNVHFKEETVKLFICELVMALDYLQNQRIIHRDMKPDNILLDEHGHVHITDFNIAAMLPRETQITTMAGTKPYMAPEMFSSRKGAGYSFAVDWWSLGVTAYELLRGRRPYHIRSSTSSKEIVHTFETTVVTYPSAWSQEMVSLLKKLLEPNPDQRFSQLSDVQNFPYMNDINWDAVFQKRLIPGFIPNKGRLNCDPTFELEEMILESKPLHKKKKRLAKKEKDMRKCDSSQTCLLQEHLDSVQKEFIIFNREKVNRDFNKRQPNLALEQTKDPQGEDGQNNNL

[45] = target: Alpha-1A adrenergic receptor (Homo sapiens) (UniProt P35348); conditions: Compound concentration 10.0 uM

Serine/threonine-protein kinase PLK2 (Homo sapiens), sequence (Q9NYY3 whole entry, looked up): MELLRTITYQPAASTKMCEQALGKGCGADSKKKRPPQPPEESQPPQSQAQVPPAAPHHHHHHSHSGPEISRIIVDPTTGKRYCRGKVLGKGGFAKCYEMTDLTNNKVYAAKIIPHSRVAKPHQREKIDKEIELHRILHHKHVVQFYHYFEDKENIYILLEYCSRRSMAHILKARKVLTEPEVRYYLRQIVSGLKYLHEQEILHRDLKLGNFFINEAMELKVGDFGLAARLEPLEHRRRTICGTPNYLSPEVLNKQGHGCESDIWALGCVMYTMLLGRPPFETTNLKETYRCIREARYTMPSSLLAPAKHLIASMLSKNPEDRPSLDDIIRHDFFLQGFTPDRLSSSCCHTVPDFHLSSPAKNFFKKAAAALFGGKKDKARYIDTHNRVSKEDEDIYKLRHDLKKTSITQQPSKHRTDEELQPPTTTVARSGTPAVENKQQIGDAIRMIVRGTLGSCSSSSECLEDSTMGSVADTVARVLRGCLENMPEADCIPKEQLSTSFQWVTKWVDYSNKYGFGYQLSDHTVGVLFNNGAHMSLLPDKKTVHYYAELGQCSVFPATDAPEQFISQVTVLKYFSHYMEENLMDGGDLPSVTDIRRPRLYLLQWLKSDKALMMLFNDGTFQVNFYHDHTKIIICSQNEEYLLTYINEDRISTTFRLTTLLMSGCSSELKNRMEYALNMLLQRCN

## C[C@H](NC(=O)c1cnc2n1[C@](C)(Cc1ccc(C#N)cc1)C(=O)N2c1cc(Cl)c(F)c(Cl)c1)C(=O)NC1(c2ccccn2)CC1 [BI 1950]
[1]
  residual activity: 75%
[2]
  residual activity: 100%
[3]
  residual activity: 100%
[4]
  residual activity: 100%
[5]
  residual activity: 100%
[6]
  residual activity: 100%
[7]
  residual activity: 59%
[8]
  residual activity: 100%
[9]
  residual activity: 100%
[10]
  inhibition: 14%
[11]
  residual activity: 100%
[12]
  residual activity: 67%
[13]
  residual activity: 100%
[14]
  residual activity: 100%
[15]
  residual activity: 100%
[16]
  residual activity: 100%
[17]
  residual activity: 100%
[18]
  residual activity: 85%
[19]
  residual activity: 100%
[20]
  residual activity: 100%
[21]
  residual activity: 100%
[22]
  residual activity: 100%
[23]
  inhibition: 16.5%
[24]
  inhibition: -4.33%
[25]
  residual activity: 100%
[26]
  residual activity: 100%
[27]
  residual activity: 100%
[28]
  residual activity: 89%
[29]
  residual activity: 100%
[30]
  residual activity: 100%
[31]
  residual activity: 100%
[32]
  residual activity: 100%
[33]
  residual activity: 98%
[34]
  residual activity: 100%
[35]
  residual activity: 100%
[36]
  residual activity: 100%
[37]
  residual activity: 100%
[38]
  residual activity: 98%
[39]
  residual activity: 100%
[40]
  residual activity: 100%
[41]
  residual activity: 100%
[42]
  residual activity: 100%
[43]
  residual activity: 100%
[44]
  residual activity: 83%
[45]
  inhibition: -8.89%

## C[C@@]1(Cc2ccc(C#N)cc2)C(=O)N(c2cc(Cl)cc(Cl)c2)c2ncc(C(=O)NC3(c4nc(C5CCC5)no4)CC3)n21 [BI 9446]
[1]
  residual activity: 98%
[2]
  residual activity: 100%
[3]
  residual activity: 100%
[4]
  residual activity: 100%
[5]
  residual activity: 100%
[6]
  residual activity: 100%
[7]
  residual activity: 48%
[8]
  residual activity: 100%
[9]
  residual activity: 100%
[10]
  inhibition: 7.21%
[11]
  residual activity: 100%
[12]
  residual activity: 100%
[13]
  residual activity: 100%
[14]
  residual activity: 100%
[15]
  residual activity: 100%
[16]
  residual activity: 100%
[17]
  residual activity: 100%
[18]
  residual activity: 100%
[19]
  residual activity: 100%
[20]
  residual activity: 100%
[21]
  residual activity: 100%
[22]
  residual activity: 100%
[23]
  inhibition: 17.5%
[24]
  inhibition: 5.35%
[25]
  residual activity: 100%
[26]
  residual activity: 100%
[27]
  residual activity: 100%
[28]
  residual activity: 100%
[29]
  residual activity: 100%
[30]
  residual activity: 100%
[31]
  residual activity: 100%
[32]
  residual activity: 100%
[33]
  residual activity: 100%
[34]
  residual activity: 85%
[35]
  residual activity: 100%
[36]
  residual activity: 100%
[37]
  residual activity: 100%
[38]
  residual activity: 100%
[39]
  residual activity: 100%
[40]
  residual activity: 97%
[41]
  residual activity: 100%
[42]
  residual activity: 95%
[43]
  residual activity: 100%
[44]
  residual activity: 100%
[45]
  inhibition: -1.65%
